For eight compounds, TGI results are on record in PubChem BioAssay (NCI).

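A five-concentration, 48-hour dose response in 96-well plates underlies each endpoint, interpolated linearly between surrounding concentrations. TGI: total growth inhibition.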

Some test systems named below: HL-60(TB) leukemia; OVCAR-4 ovarian; UO-31 renal; MALME-3M melanoma; DU-145 prostate; SNB-75 CNS; OVCAR-3 ovarian; HOP-62 NSCLC; UACC-257 melanoma; OVCAR-5 ovarian; HS 578T breast; LOX IMVI melanoma; IGROV1 ovarian; T-47D breast; HCT-116 colon; MOLT-4 leukemia; OVCAR-8 ovarian.
Assay in all cases: NCI anticancer screen, dose series, 48 h

With `CCOC(=O)NC`, the TGI in the assay with HL-60(TB) leukemia, in the assay with OVCAR-4 ovarian, in the assay on UO-31 renal, with MALME-3M melanoma, in the assay on DU-145 prostate and with SNB-75 CNS was above 100 µM throughout. Moreover, the TGI with OVCAR-3 ovarian, in the assay with HOP-62 NSCLC, in the assay with UACC-257 melanoma, in the assay with OVCAR-5 ovarian, in the assay on HS 578T breast and in the assay with LOX IMVI melanoma was above 100 µM each time. The TGI with IGROV1 ovarian, in the assay with T-47D breast and in the assay with HCT-116 colon was above 100 µM each time.

Take `C/C=C/C(C#N)(Cc1ccccc1)OP1(=O)OC(c2ccccc2)C(C)N1C` (configuration not stated): the TGI in the assay with HL-60(TB) leukemia was 41.9 µM; with MOLT-4 leukemia it was 78.4 µM; with UO-31 renal, above 100 µM; in the assay with MALME-3M melanoma it was above 100 µM; in the assay with DU-145 prostate, above 100 µM; in the assay on OVCAR-8 ovarian, above 100 µM. In addition, the TGI in the assay with SNB-75 CNS, with OVCAR-3 ovarian, with HOP-62 NSCLC, with UACC-257 melanoma, in the assay with OVCAR-5 ovarian and in the assay on HS 578T breast was above 100 µM in each case. Besides, the TGI in the assay on LOX IMVI melanoma, in the assay on IGROV1 ovarian, in the assay on T-47D breast and in the assay with HCT-116 colon was above 100 µM throughout.

On to `Cc1cc(N(CCCCl)CCCCl)ccc1C=Nc1cccc(Cl)c1`, for which the TGI with HL-60(TB) leukemia was found to be 38 µM; in the assay on OVCAR-4 ovarian it was 26.4 µM; in the assay on MOLT-4 leukemia it was 21.2 µM; with UO-31 renal, 44.2 µM; with MALME-3M melanoma, 22.8 µM; in the assay with DU-145 prostate it was 27.9 µM. Moreover, the TGI with OVCAR-8 ovarian was 24.3 µM; in the assay on SNB-75 CNS it was 24.7 µM; in the assay with OVCAR-3 ovarian, 33.5 µM; in the assay with UACC-257 melanoma, 20.2 µM; in the assay on OVCAR-5 ovarian it was 12.6 µM; with HS 578T breast, 36.2 µM. Moreover, the TGI in the assay on LOX IMVI melanoma is 26.7 µM; with IGROV1 ovarian, 35 µM; with T-47D breast it was 24.1 µM; in the assay with HCT-116 colon, above 100 µM.

Consider `O=C(O)Cc1cccc2c1OC(c1ccccc1)C(C(=O)c1ccccc1)C2=O` (configuration not stated), for which the TGI in the assay on HL-60(TB) leukemia was 50.9 µM; with MOLT-4 leukemia, above 100 µM; in the assay on UO-31 renal, above 100 µM; in the assay with MALME-3M melanoma, above 100 µM; in the assay with DU-145 prostate, above 100 µM; with OVCAR-8 ovarian, above 100 µM. Moreover, the TGI with SNB-75 CNS was 51.3 µM; in the assay with OVCAR-3 ovarian, above 100 µM; with HOP-62 NSCLC it was above 100 µM; in the assay with UACC-257 melanoma, above 100 µM; in the assay with OVCAR-5 ovarian, above 100 µM; in the assay with HS 578T breast, above 100 µM. Moreover, the TGI was above 100 µM in the assay with LOX IMVI melanoma, above 100 µM in the assay with IGROV1 ovarian, 56.9 µM in the assay with T-47D breast and above 100 µM in the assay on HCT-116 colon.

Take `Cc1cc2c(cc1C)C(=O)C1(C2)Cc2c(ccc(C)c2C)C1=O` (configuration not stated): the TGI in the assay on HL-60(TB) leukemia, with OVCAR-4 ovarian, in the assay with MOLT-4 leukemia, with UO-31 renal, with MALME-3M melanoma and in the assay on DU-145 prostate was above 100 µM throughout. Also, the TGI with OVCAR-8 ovarian, in the assay on SNB-75 CNS, in the assay with OVCAR-3 ovarian, in the assay with UACC-257 melanoma, in the assay on OVCAR-5 ovarian and in the assay on HS 578T breast was above 100 µM each time. For the same compound, the TGI in the assay on LOX IMVI melanoma, in the assay on IGROV1 ovarian, in the assay with T-47D breast and in the assay on HCT-116 colon was above 100 µM in each case.

Turning to `CC(C)=CCC[C@](C)(O[C@@H]1O[C@H](CO)[C@@H](O)[C@H](O)[C@H]1O)[C@H]1CC[C@]2(C)[C@@H]1[C@H](O)C[C@@H]1[C@@]3(C)CC[C@H](O)C(C)(C)[C@@H]3[C@@H](O[C@@H]3O[C@H](CO)[C@@H](O)[C@H](O)[C@H]3O)C[C@]12C`, the TGI in the assay on HL-60(TB) leukemia, with OVCAR-4 ovarian, in the assay on UO-31 renal, in the assay on MALME-3M melanoma, in the assay on DU-145 prostate and with OVCAR-8 ovarian was above 100 µM throughout. The TGI in the assay on SNB-75 CNS, with OVCAR-3 ovarian, in the assay on HOP-62 NSCLC, in the assay on UACC-257 melanoma, with OVCAR-5 ovarian and in the assay with HS 578T breast was above 100 µM in each case. Also, the TGI in the assay with LOX IMVI melanoma, in the assay with IGROV1 ovarian, in the assay with T-47D breast and in the assay with HCT-116 colon was above 100 µM each time.

As for `Cc1c2cccc-2ccc2c1[nH]c1ccc(Br)cc12`, the TGI in the assay on HL-60(TB) leukemia is above 100 µM; in the assay on OVCAR-4 ovarian it was 6.62 µM; in the assay with UO-31 renal, 18.6 µM; with MALME-3M melanoma it was 21.5 µM; in the assay with DU-145 prostate, 22.9 µM; with OVCAR-8 ovarian, 22.4 µM. Besides, the TGI in the assay on SNB-75 CNS is 7.89 µM; in the assay on OVCAR-3 ovarian, 13.9 µM; with HOP-62 NSCLC, 20.1 µM; in the assay on UACC-257 melanoma, above 100 µM; in the assay with OVCAR-5 ovarian, 16.7 µM; in the assay with HS 578T breast, 94.3 µM. Further, the TGI in the assay with LOX IMVI melanoma was 15 µM; with IGROV1 ovarian it was 15 µM; in the assay on T-47D breast it was 4.01 µM; in the assay on HCT-116 colon, 17.2 µM.

With `CCN(CC)CCOC(=O)CCN1CC2CCC(CC2)C1`, the TGI in the assay on HL-60(TB) leukemia, in the assay with OVCAR-4 ovarian, in the assay with MOLT-4 leukemia, with UO-31 renal, in the assay on MALME-3M melanoma and in the assay with DU-145 prostate was above 100 µM in each case. Besides, the TGI in the assay on OVCAR-8 ovarian, in the assay with SNB-75 CNS, with OVCAR-3 ovarian, with UACC-257 melanoma, with OVCAR-5 ovarian and with HS 578T breast was above 100 µM throughout. Also, the TGI in the assay on LOX IMVI melanoma, in the assay on IGROV1 ovarian, in the assay on T-47D breast and in the assay on HCT-116 colon was above 100 µM each time.
